In one assay the target is T1, human PPAR δ (Homo sapiens, UniProt Q03181).
T1 construct: expressed in transfected cells; host or cells: CV-1 cells
T1 sequence (Q03181 139-441): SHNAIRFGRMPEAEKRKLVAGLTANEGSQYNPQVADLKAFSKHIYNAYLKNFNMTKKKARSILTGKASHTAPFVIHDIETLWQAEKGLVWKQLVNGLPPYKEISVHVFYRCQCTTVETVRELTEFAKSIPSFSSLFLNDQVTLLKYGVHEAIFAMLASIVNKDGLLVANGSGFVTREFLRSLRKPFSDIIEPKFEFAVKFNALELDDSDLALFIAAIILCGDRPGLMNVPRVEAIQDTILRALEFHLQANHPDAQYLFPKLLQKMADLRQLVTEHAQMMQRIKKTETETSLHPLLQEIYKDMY
Description: Luciferase assay using human PPAR δ (Gal4-PPAR chimeric receptor reporter in CV-1 cells). The settings on record: relative to 30 μM carbacyclin defined as 1, 42 hours. It is filed as cell-based.

Another assay deals with 7-weeks old male mice. Description: Lowering effect of blood cholesterol and blood lipid in mice loaded with high cholesterol diets. The class given is in vivo. To be noted: high cholesterol diet mice, plasma, vehicle administration group defined as 100%. As for the experimental part:
High cholesterol diets (CRF-1 solid pellet mixed of 5.5% peanut oil, 1.5% cholesterol, 0.5% cholic acid, Oriental Bio Service) are loaded to 7-weeks old male mice for six days and then the body weight of food-deprived […] are measured, the following various parameter levels are measured. The measurement items are LDL, HDL, TG level, NEFA, and TC level. Mice are divided into five per group based on TC level and the division was performed without bias in the average of other parameters. From the next day to six days in a row, the suspended solution of the compounds in vehicle (0.5% methylcellulose aqueous solution) are orally compellingly administered once daily and the loading of high cholesterol diets is continued. After the next day of termination of final administration (the 7th day of administration onset), plasma lipid (TG HDL, LDL, NEFA, TC level) is measured.
The relative activity of the compounds of the present invention was calculated under the condition that the value of vehicle administration group was defined as 100%. And then HDL cholesterol elevating effect and LDL cholesterol lowering effect of the compound prepared in Example 33 are shown in Table 2.

[1] abbreviates: dose 3 mg/kg orally once daily for six days.
The mark [2] stands for this setting: dose 10 mg/kg orally once daily for six days.
Where [3] appears, read: dose 30 mg/kg orally once daily for six days.

Regarding `Cc1sc(N2CCC(C(F)(F)F)CC2)nc1CCOc1cccc(CC(=O)O)c1F` [Example 33, [2-fluoro-3-(2-{5-methyl-2-[4-(trifluoromethyl)piperidin-1-yl]-1,3-thiazol-4-yl}ethoxy)phenyl]acetic acid], the “Fold increase of transcriptional activation” value amounted to 0.47 at human PPAR δ (final concentration 0.1 μM), 1.08 at human PPAR δ (final concentration 0.3 μM) and 1.23 on human PPAR δ (final concentration 1.0 μM). Further, the figures for the “HDL cholesterol elevating effect” value in the assay with 7-weeks old male mice (setting [1]), in the assay on 7-weeks old male mice (setting [2]) and in the assay with 7-weeks old male mice (setting [3]) were 150.0%, 162.7% and 157.3%, respectively. Also, the entries for the “LDL cholesterol lowering effect” value in the assay on 7-weeks old male mice (setting [1]), in the assay on 7-weeks old male mice (setting [2]) and in the assay with 7-weeks old male mice (setting [3]) were 82.5%, 75.7% and 72.3%, respectively.

Source of the values: patent US7560475B2, “Phenylacetic acid derivative, process for producing the same, and use” (Ono Pharmaceutical Co., Ltd., priority 2003, dated 2009).
